Laboratory results from ChEMBL document CHEMBL2151005, “Discovery of 1H-pyrrolo[2,3-c]pyridine-7-carboxamides as novel, allosteric mGluR5 antagonists” (Bioorg Med Chem Lett, 2012).

Legend:
physchem [1] = conditions: octanol/water
physchem [2] = test: physchem

logP (physchem [1]) | pKa (physchem [2]) | Structure (SMILES)
4.2 | 3.5 | Cc1cc2cc[nH]c2c(C(=O)Nc2ccccn2)n1
5.3 | 4.5 | Cc1cccc(NC(=O)c2nc(C)cc3cc[nH]c23)n1
3.9 | 5.6 | Cc1csc(NC(=O)c2nc(C)cc3cc[nH]c23)n1
2.9 | 4.1 | Cc1cc2cc[nH]c2c(C(=O)Nc2ccn(C)n2)n1
3.1 | 7.6 | Cc1c[nH]c(NC(=O)c2nc(C)cc3cc[nH]c23)n1
4.7 | 4.5 | Cc1cccc(NC(=O)c2nc(C)cc3c(-c4ccccn4)c[nH]c23)n1
3.7 | 4.6 | Cc1cc2c(-c3ccccn3)c[nH]c2c(C(=O)Nc2ccn(C)n2)n1
3.3 | 6.9 | Cc1c[nH]c(NC(=O)c2nc(C)cc3c(-c4ccccn4)c[nH]c23)n1
